From article PMC10466331, “Fluorescence polarisation activity-based protein profiling for the identification of deoxynojirimycin-type inhibitors selective for lysosomal retaining alpha- and beta-glucosidases” (Chemical Science, 2023)
Like-named read-outs stand apart in the source and are kept apart here.

Tests used:
Type in all cases: biochemical
[1] = molecular target: T1, recombinant human GAA (rhGAA, Myozyme) (Homo sapiens, UniProt P10253); test: competitive FluoPol-ABPP assay on rhGAA with TAMRA-ABP II; conditions: library screen, 5 μM inhibitor, 25 nM ABP II;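 also: fluorescence polarization read at 540 nm excitation and 590 nm emission, background-corrected, normalized to uninhibited probe labelling as 100% and excess cyclosulfate as 0%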
T1 construct: purchased Genzyme

[2] = molecular target: T2, human recombinant lysosomal α-glucosidase GAA (Myozyme) (Homo sapiens, UniProt P10253); test: fluorogenic substrate (4MU-α-D-glucopyranoside) assay on rhGAA; conditions: Table S2, 4-MU alpha glucoside substrate, read-out: IC50 on rhGAA
T2 construct: purchased Genzyme

[3] = molecular target: T3, ER α-glucosidase GANAB (from Pompe disease Fibroblast lysates) (Homo sapiens, UniProt Q14697); test: fluorogenic substrate (4MU-α-D-glucopyranoside) assay on GANAB in Pompe fibroblast homogenates; conditions: Table S2, 4-MU alpha glucoside substrate, read-out: IC50 on GANAB;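 also: inhibitor preincubated 30 min at 37 °C with homogenate, then GANAB activity read after 2 h with 3.0 mM fluorogenic substrate in McIlvaine buffer containing 0.1% BSA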
T3 construct: Cellular homogenates of Pompe fibroblasts (1 mg mL^−1) were used as protein source for GANAB; endogenous in cells; host or cells: Pompe disease fibroblasts (homogenate)
T3 sequence (Q14697 29-944): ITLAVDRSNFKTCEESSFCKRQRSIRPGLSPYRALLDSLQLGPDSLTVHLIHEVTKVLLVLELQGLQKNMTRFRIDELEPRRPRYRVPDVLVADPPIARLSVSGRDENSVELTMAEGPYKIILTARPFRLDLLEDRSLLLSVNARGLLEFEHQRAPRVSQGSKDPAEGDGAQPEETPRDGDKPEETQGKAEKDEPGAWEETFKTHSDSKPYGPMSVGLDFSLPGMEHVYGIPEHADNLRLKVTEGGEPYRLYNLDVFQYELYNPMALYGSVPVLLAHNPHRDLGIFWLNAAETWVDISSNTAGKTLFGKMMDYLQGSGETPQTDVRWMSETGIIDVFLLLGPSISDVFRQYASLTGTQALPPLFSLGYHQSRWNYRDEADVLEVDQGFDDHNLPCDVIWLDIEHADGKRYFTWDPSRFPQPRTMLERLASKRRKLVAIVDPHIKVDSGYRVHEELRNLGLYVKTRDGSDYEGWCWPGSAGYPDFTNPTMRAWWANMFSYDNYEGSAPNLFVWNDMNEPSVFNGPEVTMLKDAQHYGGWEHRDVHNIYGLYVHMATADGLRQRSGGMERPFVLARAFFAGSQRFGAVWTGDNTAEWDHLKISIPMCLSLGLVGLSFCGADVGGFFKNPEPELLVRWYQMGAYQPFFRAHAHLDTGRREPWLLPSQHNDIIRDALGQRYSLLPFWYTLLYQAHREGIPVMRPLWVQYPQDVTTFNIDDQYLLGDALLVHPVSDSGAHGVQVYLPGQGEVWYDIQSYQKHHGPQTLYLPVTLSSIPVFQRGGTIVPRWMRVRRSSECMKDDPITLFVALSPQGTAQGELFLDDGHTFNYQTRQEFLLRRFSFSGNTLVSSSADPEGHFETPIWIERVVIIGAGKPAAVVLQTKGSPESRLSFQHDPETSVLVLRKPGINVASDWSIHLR
T3 sequence (P14314 15-528 partner): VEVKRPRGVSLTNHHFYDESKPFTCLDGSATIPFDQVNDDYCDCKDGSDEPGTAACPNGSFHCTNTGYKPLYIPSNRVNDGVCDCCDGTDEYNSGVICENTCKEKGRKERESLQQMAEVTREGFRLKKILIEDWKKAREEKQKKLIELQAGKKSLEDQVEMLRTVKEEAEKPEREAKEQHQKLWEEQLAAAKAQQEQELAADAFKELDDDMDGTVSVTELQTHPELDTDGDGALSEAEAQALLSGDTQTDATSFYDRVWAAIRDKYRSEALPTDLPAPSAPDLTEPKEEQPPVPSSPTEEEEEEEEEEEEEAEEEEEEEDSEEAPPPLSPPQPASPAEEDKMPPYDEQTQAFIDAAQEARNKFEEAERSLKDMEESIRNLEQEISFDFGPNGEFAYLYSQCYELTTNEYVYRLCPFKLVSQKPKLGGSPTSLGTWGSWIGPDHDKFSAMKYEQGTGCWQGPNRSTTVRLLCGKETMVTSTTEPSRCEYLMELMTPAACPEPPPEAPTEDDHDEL

| GAA FP% (residual FP-signal) [1] | IC50 [2] | IC50 [3] | SMILES | also measured |
| --- | --- | --- | --- | --- |
| 0.8% | 98 nM | 1600 nM | OC[C@@H]1[C@@H](O)[C@H](O)[C@@H](O)CN1CCCCCOCc1ccc(-c2ccccc2F)cc1 [#ID 330] | – |
| 0.8% | 15 nM | 390 nM | COc1cccc(-c2ccc(COCCCCCN3C[C@H](O)[C@@H](O)[C@H](O)[C@H]3CO)cc2)c1 [#ID 306] | – |
| 0.6% | 43 nM | 250 nM | OC[C@@H]1[C@@H](O)[C@H](O)[C@@H](O)CN1CCCCCOCc1ccc(-c2ccccc2)cc1 [#ID 343] | – |
| 0.5% | 37 nM | 1600 nM | Cc1ccc(-c2ccc(COCCCCCN3C[C@H](O)[C@@H](O)[C@H](O)[C@H]3CO)cc2)cc1 [#ID 301] | – |
| 19% | 600 nM | 9900 nM | CC(C)=CCOCCCCCN1C[C@H](O)[C@@H](O)[C@H](O)[C@H]1CO [#ID 100] | – |
| 5.6% | 280 nM | 1300 nM | OC[C@@H]1[C@@H](O)[C@H](O)[C@@H](O)CN1CCCCCOCC12CC3CC(C1)CC(COCCCCCN1C[C@H](O)[C@@H](O)[C@H](O)[C@H]1CO)(C3)C2 [#ID 99] | – |
| 0.8% | 130 nM | 1300 nM | COc1ccccc1-c1ccc(COCCCCCN2C[C@H](O)[C@@H](O)[C@H](O)[C@H]2CO)cc1 [#ID 332] | – |
| 24% | 730 nM | 1700 nM | CC(C)(C)COCCOCCN1C[C@H](O)[C@@H](O)[C@H](O)[C@H]1CO [#ID 89] | – |
| 0.9% | 12 nM | 570 nM | OC[C@@H]1[C@@H](O)[C@H](O)[C@@H](O)CN1CCCCCOCc1ccc(-c2ccc3c(c2)OCCO3)cc1 [#ID 324] | – |
| 0.4% | 220 nM | 1300 nM | OC[C@@H]1[C@@H](O)[C@H](O)[C@@H](O)CN1CCCCCOCC(COCCCCCN1C[C@H](O)[C@@H](O)[C@H](O)[C@H]1CO)C12CC3CC(CC(C3)C1)C2 [#ID 197] | – |

Second part, the molecule before the results:

| SMILES | GAA FP% (residual FP-signal) [1] | IC50 [2] | IC50 [3] | also measured |
| --- | --- | --- | --- | --- |
| CCCCCCCCN1C[C@H](O)[C@@H](O)[C@H](O)[C@H]1CO [#ID 33] | – | – | – | GAA FP% (residual FP-signal) ([1]; listed as 33): 28%; IC50 ([2]; listed as 33): 540 nM; IC50 ([3]; listed as 33): 16000 nM |
| OC[C@@H]1[C@@H](O)[C@H](O)[C@@H](O)CN1CCCCCOCC1CCCCC1 [#ID 127] | 9.3% | 290 nM | 1840 nM | – |
| N#Cc1cccc(-c2ccc(COCCCCCN3C[C@H](O)[C@@H](O)[C@H](O)[C@H]3CO)cc2)c1 [#ID 310] | 2.5% | 54 nM | 1000 nM | – |
| OC[C@@H]1[C@@H](O)[C@H](O)[C@@H](O)CN1CCCCCOCc1ccc(-c2cncnc2)cc1 [#ID 320] | 1.0% | 82 nM | 1300 nM | – |
| OC[C@@H]1[C@@H](O)[C@H](O)[C@@H](O)CN1CCCCCOCc1ccc(-c2ccc3c(c2)OCO3)cc1 [#ID 303] | 0.1% | 140 nM | 4700 nM | – |
| CCCCCCOCCCCCN1C[C@H](O)[C@@H](O)[C@H](O)[C@H]1CO [#ID 21] | 17% | 310 nM | 14800 nM | – |
| OC[C@@H]1[C@@H](O)[C@H](O)[C@@H](O)CN1CCCCCOCc1ccc(-c2ccnc(F)c2)cc1 [#ID 334] | 1.5% | 160 nM | 1600 nM | – |
| N#Cc1ccccc1-c1ccc(COCCCCCN2C[C@H](O)[C@@H](O)[C@H](O)[C@H]2CO)cc1 [#ID 328] | 0.7% | 21 nM | 1700 nM | – |
| OC[C@@H]1[C@@H](O)[C@H](O)[C@@H](O)CN1CCCCCOCc1ccc(-c2ccccc2)cn1 [#ID 336] | 0.4% | 37 nM | 310 nM | – |
| O=C(CCCCCN1C[C@H](O)[C@@H](O)[C@H](O)[C@H]1CO)NC12CC3CC(CC(C3)C1)C2 [#ID 18] | 24% | 360 nM | 2400 nM | – |
| OC[C@@H]1[C@@H](O)[C@H](O)[C@@H](O)CN1CCCCCOCc1ccc(-c2ccc(Br)cc2)cc1 [#ID 348] | 3.1% | 23 nM | 610 nM | – |
| OC[C@@H]1[C@@H](O)[C@H](O)[C@@H](O)CN1CCCCCOCc1ccc(-c2ccc(C(F)(F)F)cc2)cc1 [#ID 307] | 2.5% | 36 nM | 1700 nM | – |
| C[C@H](OCCCCCN1C[C@H](O)[C@@H](O)[C@H](O)[C@H]1CO)c1ccc(-c2ccccc2)cc1 [#ID 347] | 0.4% | 42 nM | 400 nM | – |
| OC[C@@H]1[C@@H](O)[C@H](O)[C@@H](O)CN1CCCCOCCC12CC3CC(CC(C3)C1)C2 [#ID 203] | 9.2% | 42 nM | 2100 nM | – |
| OC[C@@H]1[C@@H](O)[C@H](O)[C@@H](O)CN1CCCCCCOCC12CC3CC(CC(C3)C1)C2 [#ID 141] | 1.8% | 290 nM | 580 nM | – |
| CCCCCCCCCOCCCCCN1C[C@H](O)[C@@H](O)[C@H](O)[C@H]1CO [#ID 27] | 8.4% | 280 nM | 2800 nM | – |
| CC(C)CCCC(C)C1CCC2C3CC=C4CC(OCCCCCN5CC(O)C(O)C(O)C5CO)CCC4(C)C3CCC12C (stereo not drawn) [#ID 22] | 6.5% | 170 nM | 6000 nM | – |
| OC[C@@H]1[C@@H](O)[C@H](O)[C@@H](O)CN1CCCCCOCc1cccc(-c2ccccc2)c1 [#ID 341] | 1.8% | 54 nM | 520 nM | – |
| CC(C)(C)COCCCCCN1C[C@H](O)[C@@H](O)[C@H](O)[C@@H]1CO [#ID 26] | 23% | 640 nM | 29000 nM | – |
| CCCCCCCOCCCCCN1C[C@H](O)[C@@H](O)[C@H](O)[C@H]1CO [#ID 23] | – | – | – | GAA FP% (residual FP-signal) ([1]; listed as 23): 16%; IC50 ([2]; listed as 23): 290 nM; IC50 ([3]; listed as 23): 7200 nM |
| COc1ccc(-c2ccc(COCCCCCN3C[C@H](O)[C@@H](O)[C@H](O)[C@H]3CO)cc2)cc1 [#ID 305] | 0.3% | 20 nM | 380 nM | – |
| Cc1ccccc1-c1ccc(COCCCCCN2C[C@H](O)[C@@H](O)[C@H](O)[C@H]2CO)cc1 [#ID 326] | 0.8% | 12 nM | 690 nM | – |
| CCCCOCCCCCN1C[C@H](O)[C@@H](O)[C@H](O)[C@H]1CO [#ID 283] | – | – | – | GAA FP% (residual FP-signal) ([1]; listed as 283): 4.4%; IC50 ([2]; listed as 283): 720 nM; IC50 ([3]; listed as 283): 4900 nM |
| OC[C@@H]1[C@H](O)[C@@H](O)[C@H](O)CN1CCOCc1ccccc1 [#ID 47] | 34% | 550 nM | 4600 nM | – |
| OC[C@@H]1[C@@H](O)[C@H](O)[C@@H](O)CN1CCCC(F)(F)COCc1ccc(-c2ccccc2)cc1 [#ID 349] | 3.0% | 28 nM | 4400 nM | – |
